# Experimental data: patent publication US10806798B2, “Compound with effects of thrombolysis, free radical scavenging and thrombus-targeting” (Shanghai Lumosa Therapeutics Co., Ltd., priority 2012, dated 2020)
# Marks after values point to notes of the source that are not given here. Side chains are listed from the residue outwards. Ends that are not written are not given here.
# How the values were obtained:
# euglobulin clot = test: Euglobulin clot lysis; assay type: biochemical, Pig; conditions: after 4 h, n = 3
# Method: Pig blood was taken and mixed with 3.8% sodium citrate in a volume ratio of 9:1, immediately centrifuged at 3000 r/min for 10 min, and platelet-poor plasma was separated. 2 mL platelet-poor pig plasma and 36 mL ultrapure water were added into a 50 mL centrifuge tube. In each tube, 0.4 mL acetic acid (1%) was added and thoroughly mixed, and the tube was placed in a 4° C. refrigerator for 10 min and then centrifuged at 3000 r/min for 10 min. The centrifuge tubes were inverted, and then the inner wall of the tubes was dried using a filter paper after the liquid was drained. The euglobuin pellets resulting from centrifugation was freeze-dried for about 40 min and scratched out. About 35 mg euglobuin was taken and dissolved in 7 ml borax buffer (pH 9.28). The euglobuin were mostly dissolved after 1 h, into which 0.7 mL CaCl2 solution (25 mM) was added, and immediately plated on a 10×10 cm glass plate with a thickness of about 1 mm. After clot formation, 10 μL normal saline, or 10 μL of a solution of one of compounds Ia to Il in normal saline (1 mM) or 10 μL of a urokinase solution in normal saline (0.8 mg/mL) was pipetted and spotted onto the clot plate, with an interval between every two drops more than 1.5 cm, and each sample was spotted 3 times.
# [1] = test system: thrombus from rat arterial blood; test: In vitro thrombolysis; design: species or system SD rats; conditions: 2 h at 37° C., n = 6
# Method: SD rats (male, 350 to 400 g) were anaesthetized by intraperitoneal injection of a urethane solution at a dosage of 1200 mg/kg. The anaesthetized rats were fixed in a supine position, and the right common carotid artery was dissected, clamped at the proximal end with an arterial clip, and penetrated with a suture at the proximal and distal ends, respectively. The suture at the distal end is clipped tightly by a hemostatic clamp at the fur. Cannulation was performed at the distal end, the artery clamp was removed, and the total arterial blood was discharged into a 50 ml container previously treated with silicone oil. […] rat arterial blood was injected into a vertically fixed glass tube (20 mm in length, with an inner diameter of 4 mm and an outer diameter of 5 mm, sealed with a rubber stopper at the bottom), into which was immediately inserted a thrombus immobilization screw made of stainless steel. […] 40 min after the blood was coagulated, the rubber stopper at the bottom of the glass tube was removed, the stem of the thrombus immobilization screw was nipped by forceps, and the thrombus-wrapped thrombus immobilization screw was carefully taken out from the glass tube. The screw was then suspended and dipped in triple-distilled water to remove excessive blood, and accurately weighed after 1 h. The thrombus was suspended in 8 mL of normal saline, or a solution of compounds Ia-Il in normal saline (at a concentration of 100 nM), or a solution of ARPAK (SEQ. ID NO. 4), GRPAK (SEQ. ID NO. 5), RPAK (SEQ. ID NO. 3) or PAK in normal saline (at a concentration of 100 nM), or a solution of urokinase in normal saline (100 IU/mL), then shaked at 37° C. in a thermostatic shaker (63 r/min), and removed after 2 h and accurately weighed to determine the weight of the thrombus.
# thrombus = test: In vivo thrombolysis, rat arteriovenous bypass thrombolysis model; design: species or system SD rats; conditions: after 1 h, n = 10
# Method: SD rats (male, 220 to 230 g) were anaesthetized by intraperitoneal injection of a urethane solution at a dosage of 1200 mg/kg. The anaesthetized rats were fixed in a supine position, and the right common carotid artery was dissected, clamped at the proximal end with an arterial clip, and penetrated with a suture at the proximal and distal ends, respectively. The suture at the distal end is clipped tightly by a hemostatic clamp at the fur. Cannulation was performed at the distal end, the arterial clamp was removed, and about 1 ml arterial blood was discharged into a 1 ml eppendorf. 0.1 ml rat arterial blood was injected into a vertically fixed glass tube (15 mm in length, with an inner diameter of 2.5 mm and an outer diameter of 5.0 mm, sealed with a rubber stopper at the bottom), into which was immediately inserted a thrombus immobilization screw made of stainless steel. […] 15 min after the blood was coagulated, the rubber stopper at the bottom of the glass tube was removed, the stem of the thrombus immobilization screw was nipped by forceps, and the thrombus-wrapped thrombus immobilization screw was carefully taken out of the glass tube and then accurately weighed.
# A bypass cannula was composed of 3 segments. The middle segment was a polyethylene tubing having a length of 60.0 mm and an inner diameter of 3.5 mm. The segments on both ends were similar polyethylene tubes having a length of 100.0 mm, an inner diameter of 1.0 mm and an outer diameter of 2.0 mm, one end of which was pulled to form a tip, with an outer diameter of 1.0 mm, that could be inserted into the rat carotid artery or vein, and the other end of which was sheathed by a polyethylene tube having a length of 7.0 mm and an outer diameter of 3.5 mm (thickened in order to be inserted into the polyethylene tubing of the middle segment). The inner wall of the 3-segment cannula was entirely silylated (with 1% silicone oil in ethyl ether). The thrombus-wrapped thrombus immobilization screw was placed into the polyethylene tubing of the middle segment, and both ends of the tubing sheathed the thickened ends of the two polyethylene tubes. The cannula was filled with a heparin solution in normal saline (50 IU/kg) through the tip end by using an injector and was ready for use. The trachea of the anaesthetized rat was then dissected and tracheal cannulation was performed. The left external carotid vein of the rat was dissected, and penetrated with a suture at the proximal and distal ends, respectively. An uneven open incision was careful made on the exposed left external carotid vein, and the tip of the bypass cannula prepared as described above was inserted into the proximal end of the open incision in the left external carotid vein, away from the stem of the thrombus immobilization screw in the middle segment of the bypass cannula (which accommodated the accurately weighed thrombus immobilization screw). A precise amount of heparin in saline (50 IU/kg) was injected through the tip at the other end by using an injector. At this moment, without removing the injector from the ethylene tube, the tubing between the injector and the polyethylene tube was clamped with forceps. The blood flow was stopped by clamping the proximal end of the right common carotid artery with an arterial clip, and an uneven open incision was cut carefully across the common carotid artery near the clip. The injector was pulled out of the tip of the polyethylene tube, and the tip of the polyethylene tube was then inserted into the proximal end of the artery open incision. Both ends of the bypass cannula were fixed to the artery or vein with #4 sutures. […]
# rats with stroke = test: Cerebral infarction volume after immediate treatment of stroke (TTC staining); assay type: in vivo, SD rats; conditions: n = 10
# Method: After the rats were awake for 24 h and assessed for their degree of damage in neural function in Experimental example 6, they were anesthesized with urethane followed by immediate decapitation and removal of the brain. Brain tissues were kept in a −20° C. refrigerator for 2 h, and coronal sections of about 2 mm were successively sliced from the prefrontal end for a total of 6 sections, and then placed into a 2% TTC solution to incubate in darkness at 37° C. for 30 min. The color change in brain sections was observed: normal brain tissues were stained red by TTC, while ischemic brain tissues, i.e., brain tissues with infracts, appeared in a white color. Photographs were taken by using a digital camera and processed with SPSS statistics software, and the volume of infarction in brain tissues and the volume of normal brain tissues in the coronal sections were calculated.
Substance,Diameter (Mean ± SD mm) of euglobulin clot lysis (euglobulin clot; 10 μL of 1 mM solution) [mm],Weight reduction in thrombus (Mean ± SD mg) ([1]; 100 nM) [mg],Weight reduction in thrombus (Mean ± SD mg) (thrombus; 0.1 μmol/kg) [mg],Percentage of infarction volume (Mean ± SD %) (rats with stroke) [%],Diameter (Mean ± SD mm) of euglobulin clot lysis (euglobulin clot; 10 μL of urokinase 0.8 mg/mL) [mm],Weight reduction in thrombus (Mean ± SD mg) ([1]; urokinase 100 IU/mL),Weight reduction in thrombus (Mean ± SD mg) (thrombus; urokinase 20000 IU/kg),"Percentage of infarction volume (Mean ± SD %) (rats with stroke; urokinase 20000 IU/kg, immediate treatment)"
"1,3-dioxo-2-{4′-oxyacetyl-[N^ω-(Ala-Arg-Pro-Ala-Lys)-Lys-Arg-Gly-Asp-Ser]phenyl}-4,4,5,5-tetramethylimidazoline [Ia]",4.0,28.50 ± 2.59,15.39 ± 3.19,7.21 ± 0.82,–,–,–,–
urokinase,–,–,–,–,10.7,58.33 ± 4.08^a mg,18.02 ± 2.32^a mg,11.00 ± 2.42 ^b %
"1,3-dioxo-2-{4′-oxyacetyl-[N^ω-(Pro-Ala-Lys)-Lys-Arg-Gly-Asp-Ser]phenyl}-4,4,5,5-tetramethylimidazoline (K([Lys-Ala-Pro])RGDS; not fully specified (N-terminus); also: 4′-oxyacetylphenyl-1,3-dioxo-4,4,5,5-tetramethylimidazoline (nitronyl nitroxide) conjugate, attachment amine not clear) [Ij]",4.0,26.16 ± 3.15,14.89 ± 1.84,6.84 ± 0.82,–,–,–,–
"1,3-dioxo-2-{4′-oxyacetyl-[N^ω-(Arg-Pro-Ala-Lys)-Lys-Arg-Gly-Asp-Ser]phenyl}-4,4,5,5-tetramethylimidazoline [Ig]",5.2,27.83 ± 2.56,16.35 ± 2.42,6.40 ± 0.28,–,–,–,–
"1,3-dioxo-2-{4′-oxyacetyl-[N^ω-(Pro-Ala-Lys)-Lys-Arg-Gly-Asp-Val]phenyl}-4,4,5,5-tetramethylimidazoline (K([Lys-Ala-Pro])RGDV; not fully specified (N-terminus); also: 4′-oxyacetylphenyl-1,3-dioxo-4,4,5,5-tetramethylimidazoline (nitronyl nitroxide) conjugate, attachment amine not clear) [Ik]",4.5,25.00 ± 1.54,15.47 ± 2.61,7.86 ± 1.02,–,–,–,–
"1,3-dioxo-2-{4′-oxyacetyl-[N^ω-(Gly-Arg-Pro-Ala-Lys)-Lys-Arg-Gly-Asp-Ser]phenyl}-4,4,5,5-tetramethylimidazoline",5.2,14.17 ± 3.55,14.17 ± 3.55,8.21 ± 1.91,–,–,–,–
"1,3-dioxo-2-{4′-oxyacetyl-[N^ω-(Arg-Pro-Ala-Lys)-Lys-Arg-Gly-Asp-Phe]phenyl}-4,4,5,5-tetramethylimidazoline [Ii]",4.0,24.83 ± 1.17,15.73 ± 2.95,7.06 ± 1.08,–,–,–,–
"1,3-dioxo-2-{4′-oxyacetyl-[N^ω-(Arg-Pro-Ala-Lys)-Lys-Arg-Gly-Asp-Val]phenyl}-4,4,5,5-tetramethylimidazoline [Ih]",4.2,29.33 ± 3.01,15.37 ± 1.82,7.35 ± 1.14,–,–,–,–
"1,3-dioxo-2-{4′-oxyacetyl-[N^ω-(Ala-Arg-Pro-Ala-Lys)-Lys-Arg-Gly-Asp-Val]phenyl}-4,4,5,5-tetramethylimidazoline [Ib]",5.2,28.17 ± 2.31,14.35 ± 2.95,7.13 ± 0.83,–,–,–,–
"1,3-dioxo-2-{4′-oxyacetyl-[N^ω-(Ala-Arg-Pro-Ala-Lys)-Lys-Arg-Gly-Asp-Phe]phenyl}-4,4,5,5-tetramethylimidazoline [Ic]",3.8,27.33 ± 2.07,15.79 ± 3.07,7.40 ± 1.65,–,–,–,–
"1,3-dioxo-2-{4′-oxyacetyl-[N^ω-(Pro-Ala-Lys)-Lys-Arg-Gly-Asp-Phe]phenyl}-4,4,5,5-tetramethylimidazoline (K([Lys-Ala-Pro])RGDF; not fully specified (N-terminus); also: 4′-oxyacetylphenyl-1,3-dioxo-4,4,5,5-tetramethylimidazoline (nitronyl nitroxide) conjugate, attachment amine not clear) [Il]",4.2,25.83 ± 2.31,16.21 ± 2.84,6.56 ± 0.41,–,–,–,–
"1,3-dioxo-2-{4′-oxyacetyl-[N^ω-(Gly-Arg-Pro-Ala-Lys)-Lys-Arg-Gly-Asp-Phe]phenyl}-4,4,5,5-tetramethylimidazoline [If]",4.5,15.29 ± 3.36,15.29 ± 3.36,7.47 ± 1.31,–,–,–,–
